Results as given in patent US10371695B2, “Identifying compounds modifying a cellular phenotype” (2cureX ApS, priority 2014, dated 2019).

What was measured:
[1] = test system: micro-tumors (spheroids) from patient tumor tissue; assay: Chemo-sensitivity screening of compounds distributed in Matrigel on patient micro-tumors (growth by imaged area); assay type: cell-based, human; conditions: for cancer cell proliferation (spheroid/micro-tumour growth) inhibition: increasing concentrations, inhibited = spheroid grown to less than 1.5x original size after 7 days at least at highest concentrations tested
Method: Materials and Solutions: • Support: Matrigel® available from BD Biosciences. • Arrays: Micro slide format arrays with 96 individual wells surrounded by a common reservoir.
Compounds, Matrigel® and arrays are kept at 5° C. (cooling device) throughout the process when not in the freezer. • 1. Compounds were diluted in Matrigel® (Fluid) as single compounds and/or in combinations equal to standard treatment regimens of patients with colorectal cancer. • 2. Matrigel® with compounds were added to individual wells of the arrays (Fluid) • 3. Arrays were centrifuged 10 min at 3000 RPM (cold) • 4. Arrays were stored at −18° C. (Solid)—ready for use
(§1) Materials and Solutions: • Array prepared as described in Example 1 • STEM media: DMEM/F12 w. 15% Hepes (Gibco 11330-032), StemPro hESC SFM growth supplement (50×):1× • BSA 25%, Gibco A10008-01: 1.8%, FGF-basic (10 ug/ml): 8 ng/ml, 2-Mercaptoethanol Gibco 21985 (55 mM): 0.1 mM, Penicillin/streptomycin 200 U/ml/200 ug/ml (=2× usual conc.), Gentamycin Sigma G1272: 1:100 (=2× usual conc.), Amphotericin (fungicide): 1:100 (=1× usual conc.), Hepes 15 mM • Cooling device for keeping 5° C. • Incubator, 37° C. (CO2, 99% humidity for cell culture)
Procedure: • 1. Tumor tissue from patient was prepared to form a population of small individual micro-tumors (spheroids) • 2. Micro-tumors were suspended in cold STEM media • 3. The array was taken directly from freezer and placed on the cooling device (solid) • 4. 3 ml micro tumor suspension was added to the reservoir of the array and the array was left for 7 min. to allow cells to distribute and settle into individual wells of the array • 5. STEM media was gently removed from reservoir—leaving the micro tumors in the wells • 6. The array was moved to refrigerator (5° C.) and left for 30 min to allow Matrigel® to liquefy and the cells to settle at the bottom of the array (fluid) • 7. Hereafter the array was incubated at 37° C. for 1 hr. to allow the Matrigel® to solidify and entrap the cells in a certain position (solid) • 8. The array with micro-tumors positioned at the bottom was imaged at an automated microscope • 9. Images were acquired every day for 10 days and micro-tumor growth (and inhibition of growth) was measured by quantifying the area of the micro-tumors.
In general cancer cell proliferation as evidenced by spheroid (micro-tumour) growth was considered inhibited if the spheroid had grown to less than 1.5× the original size after 7 days of incubation at least at the highest concentrations tested.

[2] = test system: micro-tumors (spheroids) from patient tumor tissue; assay: Screening of compounds imbedded in thermo sensitive nano-particles distributed in Matrigel on patient micro-tumors; assay type: cell-based, human; conditions: FIG. 4; images at day 0, 3, 5 and 7; compound released from nano-particles at 42° C.
Method: Materials and Solutions: • Nano-particles containing chemo therapeutic compounds • Support: Matrigel® available from BD Biosciences, • Arrays: Micro slide format array with 96 individual wells surrounded by a common reservoir as described in Example 1 • Cooling device for keeping 5° C.
Nano-particles, Matrigel® and arrays were kept at 5° C. (cooling block) throughout the process when not in the freezer. • 1. Compound containing nano-particles were diluted in Matrigel® (fluid). • 2. Matrigel containing the nano-particles (from above point 1) were added to individual wells of the array • 3. The arrays were centrifuged 10 min at 3000 RPM (cold) • 4. The arrays were stored at −18° C. for 24 hrs. (solid)
as §1, with “prepared accordingly to” for “prepared as described in”, “Example 2” for “Example 1”, “•” for “• Cooling device for keeping 5° C. •”, “C. […]” for “C. (CO2, 99% humidity for cell culture)”
Procedure: • 1. […] Images were acquired every day for 10 days and micro-tumor growth (and inhibition of growth) was measured by quantifying the area of the micro-tumors.

Compound	cancer cell proliferation (spheroid/micro-tumour growth) inhibition ([1]; patient 1, FIG. 2a)	cancer cell proliferation (spheroid/micro-tumour growth) inhibition ([1]; patient 2, FIG. 2a)	time trace of micro-tumour (spheroid) growth, cancer cell proliferation ([1]; FIG. 3, presence or absence of compound)	micro-tumour growth, proliferation of cancer cells [2]
O=c1[nH]cc(F)c(=O)[nH]1 [5FU]	inhibited	inhibited		
CCc1c2c(nc3ccc(OC(=O)N4CCC(N5CCCCC5)CC4)cc13)-c1cc3c(c(=O)n1C2)COC(=O)[C@]3(O)CC [Irinotecan]			clearly inhibited cancer cell proliferation	inhibits proliferation
O=C1[O][Pt]2([NH][C@@H]3CCCC[C@H]3[NH]2)[O]C1=O [Oxaliplatin]		inhibited		
CCc1c2c(nc3ccc(O)cc13)-c1cc3c(c(=O)n1C2)COC(=O)[C@]3(O)CC [SN38]	inhibited	inhibited		
